The source of these data is patent US12569474B2, “Compositions and methods for treating anemia” (Akebia Therapeutics, Inc., priority 2013, dated 2026).

The subject of one data set is HIF prolyl hydroxylase. The data set can be described thus: In Vitro HIF Prolyl Hydroxylase Inhibition Assay (HRE luciferase reporter). Type of data set: cell-based, human. The procedure: (§1) Materials and Methods: Cell Culture: Human hepatocellular carcinoma (Hep3B) cells were obtained from the American Type Culture Collection (ATCC, Mannassas, VA) and cultured according to ATCC recommendations. Cells were cultured at 37° C. in an atmosphere of 95% air and 5% C02 in a humidified incubator. Compound 13 was diluted to a stock concentration of 50 mM in DMSO (Sigma).
(§2) Cell Treatments: Hep3B cells were plated on 24 well plates. Subsets of Hep3B cultures were transfected with a HIF reporter plasmid (pHRE-luciferase) overnight. (See Sheta, et al., Oncogene. 2001 Nov. 15; 20(52):7624-34.) Cells were exposed to vehicle (1:1000 DMSO) or test Compound 13 at 50 m for 18 hours at 37° C. in an atmosphere of 95% air and 5% CO2 in a humidified incubator.
(§3) Analysis: After 48-hour culture, cell supernatants were subsequently collected, centrifuged at 15,000×g for 15 minutes at 4° C. to sediment debris.
In Vitro HIF Prolyl Hydroxylase Inhibition Assay: Cell lysates were assayed using the dual luciferase reporter-assay (Promega, Madison, WI, USA). Observed firefly luciferase activity was normalized to a co-transfected Renilla luciferase.
(§4) Compound 13 was assayed in duplicate. Fold change over the vehicle control was calculated. Compound 13 was tested at a concentration of 50 m. […] Resulting values for the In Vitro EPO Induction Assay, and In Vitro HIF Prolyl Hydroxylase Inhibition Assay are shown in Table 1 and Table 2.
(In a reporter assay the amount or activity of a reporter protein is the signal.)

Data set [1] has as its system EPO production in Hep3B cells. The data set can be described thus: In Vitro EPO Induction Assay (secreted EPO immunoassay). Type of data set: cell-based, human. The procedure: as §1, §2, §3
In Vitro EPO Induction Assay: Secreted EPO levels were assayed by specific immunoassay (MesoScale Discovery, Gaithersburg, MD) in accordance with manufacturer's instructions.
as §4

A short description of data set [2]: Clinical data obtained to date (summary over studies). Type of data set: in vivo, human. From the text:
Furthermore, this is achieved with a modest increase in the daily peak level of EPO, but with no increase in basal (pre-dose) levels (in a manner that mimics the physiologic diurnal response in healthy individuals).

In the next data set the test system is healthy adult males. Nature of the data set: Phase I clinical trials in healthy adult males (overall). Type of data set: in vivo, human. The text has this:
This was a surprising result for a number of reasons. […] Thus, particularly with regard to patients having a disease or condition associated with kidney impairment, a person of skill in the art would not expect that administration of a compound provided herein could cause an increase in a patient's serum hemoglobin levels while also mimicking the diurnal variation of serum EPO levels in healthy individuals and without raising the patients' baseline serum EPO levels.

Data set [3] deals with healthy male adults. Nature of the data set: Phase 1b multiple ascending dose (MAD) study, EPO response. Type of data set: in vivo, human.
In data set [4] the test system is patients having anemia secondary to CKD. Nature of the data set: Compound 1 at 500 mg in patients having anemia secondary to CKD: EPO levels and half-life over 24 hours. Type of data set: in vivo, human. The text has this:
Current treatment of anemia associated with chronic kidney disease (CKD) with erythropoiesis-stimulating agents (ESAs) can lead to supraphysiological levels of circulating erythropoietin (EPO) that persist for days, a profile that may be associated with increased cardiovascular side effects and thromboembolic events. […] In a randomized double-blind, placebo-controlled Phase 2a trial, 93 patients with CKD stage 3, 4, or 5 (not on dialysis) received placebo or Compound 1 in the following dose groups: 240, 370, 500, or 630 mg once daily for 6 weeks. […]

The test system of data set [5] is patients with Stage 3 or 4 CKD. Nature of the data set: Phase 2a dose escalation study, 28 days. Type of data set: in vivo, human. The procedure: In a Phase 2a dose escalation study, 10 CKD patients received Compound 1 once daily for 28 days. Dosing began at 400 mg in CKD Stage 3 patients and 300 mg in CKD Stage 4 patients.
For data set [6], the system named is healthy male adults. Nature of the data set: Phase 1a single ascending dose (SAD) study, EPO response. Type of data set: in vivo, human.
The test system of data set [7] is patients with CKD stage 3, 4, or 5 (not on dialysis). Nature of the data set: Randomized double-blind, placebo-controlled Phase 2a trial, 6 weeks. Type of data set: in vivo, human. The text has this:
Current treatment of anemia associated with chronic kidney disease (CKD) with erythropoiesis-stimulating agents (ESAs) can lead to supraphysiological levels of circulating erythropoietin (EPO) that persist for days, a profile that may be associated with increased cardiovascular side effects and thromboembolic events. […] In a randomized double-blind, placebo-controlled Phase 2a trial, 93 patients with CKD stage 3, 4, or 5 (not on dialysis) received placebo or Compound 1 in the following dose groups: 240, 370, 500, or 630 mg once daily for 6 weeks. […] Erythropoietin was measured at baseline, week 2, end of treatment and follow up.
In a randomized double-blind, placebo-controlled Phase 2a clinical trial, 93 patients with CKD stage 3, 4, or 5 (not on dialysis) received placebo or Compound 1 in the following dose groups: 240, 370, 500, or 630 mg once daily for 6 weeks. […] TIBC and serum iron levels were measured at baseline, week 2, week 4, end of treatment (week 6) and follow up.
In a randomized double-blind, placebo-controlled Phase 2a trial, 93 patients with CKD stage 3, 4, or 5 (not on dialysis) received placebo or Compound 1 in the following dose groups: 240, 370, 500, or 630 mg once daily for 6 weeks.

Where [8] appears, read: 240, 370, 500, or 630 mg once daily for 6 weeks, all dose groups, ANOVA p<0.0001.

SMILES strings stand for the structures. “Also recorded” adds a separate entry of the source.

As for `NCCNC(=O)c1ncccc1O` [Compound 13, N-(2-aminoethyl)-3-hydroxy-pyridine-2-carboxamide], in the data set on HIF prolyl hydroxylase (Hep3B cells transfected with pHRE-luciferase, Compound 13 at 50 µM, firefly normalized to Renilla, vehicle 1), the “Mean HIF PH Inhibition Activity (Relative Luciferase)” value is given as 3.6. Also, the “HIF prolyl hydroxylase enzyme activity (result in words)” value in the data set on HIF prolyl hydroxylase (Hep3B cells, 50 µM, vs DMSO vehicle) is “inhibit HIF prolyl hydroxylase enzyme activity”. For the same compound, the “Fold Change (HIF PH inhibition activity, over vehicle control)” value in the data set on HIF prolyl hydroxylase (Hep3B cells, Compound 13 at 50 µM, inactive if ≤1.0 fold over control) was determined as 3.6. The “Mean [EPO]” value in [1] (Compound 13, 18 hours, assayed in duplicate, vehicle 3.0736) is recorded as 8.9137 mIU/mL. In addition, in [1] (Compound 13, inactive if ≤1.0 fold over control), the “Fold Change (EPO, over vehicle control)” value is on record as 2.9001. The “EPO production (result in words)” value in [1] (vs DMSO vehicle) is reported as “increase EPO production”.
As for `O=C(O)CNC(=O)c1ncc(-c2cccc(Cl)c2)cc1O` [Compound 1, {[5-(3-chlorophenyl)-3-hydroxypyridine-2-carbonyl]amino}acetic acid], in data set [2] (dose responsive changes), the Hepcidin and ferritin entry is “decreases in hepcidin and ferritin”; the “Total iron binding capacity” value is reported as “increase in total iron binding capacity”. The “Baseline EPO” value in data set [2] (human, in vivo) is “without increasing baseline EPO”. In addition, the “EPO levels (daily)” value in data set [2] (similar to the physiologic diurnal response) is on record as “modest dose-proportional daily increases in EPO levels”. In addition, the “Rise in EPO relative to dose” value in the data set on healthy adult males (Phase 1 studies) is listed as “proportionate to the dose”. Besides, in the data set on healthy adult males (healthy adult males), the “Serum EPO levels after administration” value is reported as “returned to approximately baseline levels within twenty-four hours” and the Serum hemoglobin levels result is given as “able to increase serum hemoglobin levels”. In addition, in the data set on healthy male adults [3] (multiple ascending dose), the “Peak EPO concentration” value is “dose responsive increase”. The “EPO concentration prior to the next morning dose” value with healthy male adults [3] (regardless of the dosing group) is on record as “essentially returned to baseline”. Also, the “Half-life in patients with anemia secondary to CKD compared to healthy individuals” value in data set [4] (CKD patients vs healthy adult males) is “approximately twice as long; also recorded: significantly longer”. In addition, the “Time to return to baseline EPO levels” value in [4] (dose of 500 mg, patients having anemia secondary to CKD) is no more than 24 h. Besides, the “Hemoglobin by Day 29” value in data set [5] (10 CKD Stage 3 and 4 patients, once daily 28 days, start 400 mg (Stage 3) or 300 mg (Stage 4), +100 mg steps, baseline 9.91 g/dL) is recorded as 10.54 g/dL. For the same compound, the “Ferritin by Day 29” value in data set [5] (10 CKD Stage 3 and 4 patients, once daily 28 days, baseline 334.10 ng/mL) came to 271.70 ng/mL. In data set [5] (patients with Stage 3 or 4 CKD, 28 days), the Tolerability result was “well-tolerated”. The “EPO increase compared to placebo” value with healthy male adults [6] (600 mg cohort, 8 hours, p=0.034) is given as “significant increase”. Also, the “EPO rise compared to placebo” value in the data set with healthy male adults [6] (900 and 1200 mg groups, 8, 12, 18, and 24 hours following dosing, p<0.01) is given as “significant, dose-dependent rises”. Moreover, in data set [7] (setting [8]), the “HGB (hemoglobin) at Week 6 compared to baseline and to placebo” value is reported as “able to increase serum hemoglobin levels; also recorded: significantly increased HGB; also recorded: significantly increased hemoglobin levels”; the “TIBC at Week 6 compared to baseline and to placebo” value was “able to increase TIBC levels; also recorded: significantly increased TIBC”. For the same compound, the “TIBC dose relation at Week 6” value in data set [7] (240-630 mg once daily) is reported as “dose-related increase in TIBC; also recorded: dose-related increase in total iron binding capacity”. Further, in data set [7] (Week 6), the “Serum iron levels relative to baseline” value is given as “not associated with an increase in serum iron levels; also recorded: without increasing serum iron levels” and the “TSAT at Week 6” value is “decrease in TSAT”. The “Hepcidin expression at low doses” value in data set [7] (low doses, such as the 240 mg group, Week 6) is “not accompanied by a decrease in hepcidin expression”. The “Serum levels of EPO over time” value in data set [7] (measured at baseline, week 2, end of treatment and follow up) is reported as “did not increase significantly over time”. Moreover, the “Daily EPO levels in CKD patients” value in [7] (mimicking the physiologic diurnal response) was “moderate daily increases in EPO levels”. Also, in data set [7] (prior to daily dose, 6 weeks), the “Basal (pre-dose) EPO levels” value was “without increasing basal (pre-dose) EPO levels”. The HGB dose response entry in data set [7] (starting from the lowest dose (240 mg)) is on record as “clear dose-responsive increase in HGB”.
